Results as given in patent US20250281628A1, “COMPOSITE NANOPARTICULATE MINERALIZED COLLAGEN GLYCOSAMINOGLYCAN MATERIALS WITH TIME RELEASE ANTI-RESORPTIVE FACTORS” (The Regents of the University of California, priority 2021, published 2025).

Columns and labels:
[1] = system: canonical BMP receptor signaling pathway; experiment: Inhibitor study with DMH1, western blot of hMSCs on scaffolds; assay type: cell-based, human; conditions: 50 μM
Experimental: (§1) Osteogenic differentiation of hMSCs on Col-GAG and MC-GAG: 3×10^5 hMSCs were seeded onto 8 mm discs of CG-GAG and MC-GAG scaffolds in proliferation media. 24 h after seeding, media was switched to osteogenic differentiation media consisting of 10 mM β-glycerophosphate, 50 μg/mL ascorbic acid, and 0.1 μM dexamethasone. For inhibitor studies, scaffolds were treated or untreated with dorsomorphin homologue 1 (DMH1; Sigma-Aldrich) or PD98059 (Cell Signaling Technologies, Beverly, MA) separately, all at a concentration of 50 μM. Fresh DMH1 and PD98059 were added to each media change every 3 days.
(§2) Western blot: Lysates were prepared from scaffolds at 0, 4, 14, and 24 days of culture using SDS sample buffer and equal amounts were subjected to 4-20% SDS-PAGE (Bio-Rad, Hercules, CA). Western blot analysis was carried out with antibodies against OPG, RANKL, phosphorylated small mothers against decapentaplegic 1/5 (p-Smad1/5), total Smad5, phosphorylated extracellular regulated kinase 1/2 (p-ERK1/2), total ERK1/2, and […] followed by 1:4000 dilutions of HRP-conjugated IgG antibodies (Bio-Rad, Hercules, CA) and an enhanced chemiluminescent substrate (Thermo Scientific, Rockford, IL). For detection of p-Smad1/5 and total Smad5, 10 μg of lysate was loaded per lane. For detection of OPG, RANKL, p-ERK1/2, total ERK1/2, and β-actin, 20 μg of lysate was loaded per lane. All antibodies were obtained from Cell Signaling Technologies (Beverly, MA) with the exception of RANKL, OPG, and β-actin antibodies which were obtained from Santa Cruz Biotechnology (Santa Cruz, CA). Imaging analysis was carried out using ImageJ (NIH, Bethesda, MD).
(§3) To characterize the mechanism responsible for differential OPG expression osteogenically differentiated hMSCs cultured on MC-GAG versus Col-GAG, DMH1, and PD98059 small molecule inhibitors were utilized for the canonical BMP receptor and MEK1/ERK1/2 signaling pathways, respectively (FIG. 11). […] Due to the massive upregulation of Smad1/5 phosphorylation in MC-GAG, a smaller inhibition was noted compared to Col-GAG. […] In contrast, OPG expression was increased in the presence of DMH1 on both Col-GAG and MC-GAG, particularly at the day 14 timepoint.

[2] = system: MEK1/ERK1/2 signaling pathway; experiment: Inhibitor study with PD98059, western blot of hMSCs on scaffolds; assay type: cell-based, human; conditions: 50 μM
Experimental: as §1, §2, §3

Row | SMILES | phosphorylated ERK1/2 ([1]; MC-GAG at day 4) | OPG expression ([1]; both Col-GAG and MC-GAG, particularly day 14) | total Smad5, total ERK1/2, RANKL, or actin ([1]; hMSCs on Col-GAG and MC-GAG) | phosphorylation of Smad1/5 ([1]; hMSCs on either material) | phosphorylated Smad1/5, total Smad5, total ERK1/2, or actin [2] | phosphorylated ERK1/2 ([2]; all timepoints, either material) | OPG protein expression ([2]; hMSCs on Col-GAG) | RANKL expression ([2]; hMSCs on Col-GAG) | OPG protein expression ([2]; hMSCs on MC-GAG, all timepoints) | RANKL expression ([2]; hMSCs on MC-GAG, particularly day 24)
1 | CC(C)Oc1ccc(-c2cnc3c(-c4ccnc5ccccc45)cnn3c2)cc1 [DMH1, dorsomorphin homologue 1] | small elevation | increased | No differences | partially decreased at all timepoints |  |  |  |  |  | 
2 | COc1cccc(-c2cc(=O)c3ccccc3o2)c1N [PD98059] |  |  |  |  | no effects | decreased | no differences were detected | no differences were detected | decreased | downregulated
